From patent US12545659B2, “IRAK degraders and uses thereof” (Kymera Therapeutics, Inc., priority 2019, dated 2026)

Molecular target: T1, IRAK4 (Homo sapiens, UniProt Q9NWZ3)
T1 construct: endogenous in cells; host or cells: OCI-LY10
T1 sequence (Q9NWZ3 1-460): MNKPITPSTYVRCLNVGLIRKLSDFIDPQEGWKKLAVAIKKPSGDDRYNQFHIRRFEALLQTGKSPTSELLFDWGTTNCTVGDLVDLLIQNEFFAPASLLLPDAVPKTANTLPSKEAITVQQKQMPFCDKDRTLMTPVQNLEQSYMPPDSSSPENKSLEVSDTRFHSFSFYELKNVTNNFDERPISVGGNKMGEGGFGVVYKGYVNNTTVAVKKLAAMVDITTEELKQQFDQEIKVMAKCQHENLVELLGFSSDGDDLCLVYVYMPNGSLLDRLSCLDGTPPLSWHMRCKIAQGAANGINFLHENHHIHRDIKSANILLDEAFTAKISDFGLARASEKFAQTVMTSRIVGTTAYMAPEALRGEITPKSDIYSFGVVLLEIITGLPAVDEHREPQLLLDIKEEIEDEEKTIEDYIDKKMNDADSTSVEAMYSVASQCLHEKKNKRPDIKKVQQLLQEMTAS
Test: IRAK4 MSD Degradation in OCI-LY10
Assay type: cell-based
Settings: OCI-LY10 cells, 4 hrs incubation, read-out: IRAK4 degradation in OCI-LY10 at 4 hrs: DC50
Outline: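 IRAK4 remaining in lysates was read by Meso Scale electrochemiluminescence sandwich (2H9 capture, Y279 plus SULFO-TAG detection). Cells were exposed 4 to 24 h at 37 °C to eight 3-fold dilutions from 1 to 10 μM final top; three-parameter logistic fit gave DC50.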

Compound	DC50 [nM]
CN(C[C@H]1CC[C@H](n2cc3cc(NC(=O)c4cnn5cccnc45)c(C(C)(C)O)cc3n2)CC1)C1CCN(Cc2cccc3c2n(C)c(=O)n3C2CCC(=O)NC2=O)CC1 (stereo partly drawn) [I-50]	< 50
COc1cc2nn([C@H]3CC[C@H](CN4CCC(CCCc5cccc6c5n(C)c(=O)n6C5CCC(=O)NC5=O)CC4)CC3)cc2cc1NC(=O)c1cnn2cccnc12 (stereo partly drawn) [I-158]	< 50
COc1cc2nn([C@H]3CC[C@H](CN(C)C4CCN(c5cccc6c5n(C)c(=O)n6C5CCC(=O)NC5=O)CC4)CC3)cc2cc1NC(=O)c1ccc(F)c(C)n1 (stereo partly drawn) [I-189]	< 50
COc1cc2nn([C@H]3CC[C@H](CN4CCC(c5cccc6c5n(C)c(=O)n6C5CCC(=O)NC5=O)CC4)CC3)cc2cc1NC(=O)c1cccc(C)n1 (stereo partly drawn) [I-328]	< 50
CN(CCCO[C@H]1C[C@H](Cc2cccc3c2n(C)c(=O)n3C2CCC(=O)NC2=O)C1)C[C@H]1CC[C@H](n2cc3cc(NC(=O)c4cccc(C(F)(F)F)n4)c(C(F)F)cc3n2)CC1 (stereo partly drawn) [I-205]	50 to 100
Cn1c(=O)n(C2CCC(=O)NC2=O)c2cccc(N3CCN(C[C@H]4CC[C@H](n5cc6cc(NC(=O)c7cccc(C(F)(F)F)n7)c(OC(F)(F)F)cc6n5)CC4)CC3)c21 (stereo partly drawn) [I-169]	50 to 100
Cn1c(=O)n(C2CCC(=O)NC2=O)c2cccc(CCC3CC4(CCN(C[C@H]5CC[C@H](n6cc7cc(NC(=O)c8cccc(OC(F)(F)F)n8)c(C(C)(C)O)cc7n6)CC5)CC4)C3)c21 (stereo partly drawn) [I-204]	50 to 100
Cn1c(=O)n(C2CCC(=O)NC2=O)c2cccc(C#CCCCNC[C@H]3CC[C@H](n4cc5cc(NC(=O)c6cccc(C(F)(F)F)n6)c(C(C)(C)O)cc5n4)CC3)c21 (stereo partly drawn) [I-60, N-[2-[4-[[5-[1-(2,6-dioxo-3-piperidyl)-3-methyl-2-oxo-benzimidazol-4-yl]pent-4-ynylamino]methyl]cyclohexyl]-6-(1-hydroxy-1-methyl-ethyl)indazol-5-yl]-6-(trifluoromethyl)pyridine-2-carboxamide]	< 50
COc1cc2nn([C@H]3CC[C@H](CN4CC(c5cccc6c5n(C)c(=O)n6C5CCC(=O)NC5=O)C4)CC3)cc2cc1NC(=O)c1cccc(C(F)(F)F)n1 (stereo partly drawn) [I-111]	50 to 100
Cn1c(=O)n(C2CCC(=O)NC2=O)c2cccc(C3CCN(C[C@H]4CC[C@H](n5cc6cc(NC(=O)c7cccc(C(C)(C)F)n7)c(C(F)F)cc6n5)CC4)CC3)c21 (stereo partly drawn) [I-103]	50 to 100
COc1cc2nn([C@H]3CC[C@H](CN(C)C4CCN(c5cccc6c5n(C)c(=O)n6C5CCC(=O)NC5=O)CC4)CC3)cc2cc1NC(=O)c1ccccn1 (stereo partly drawn) [I-329]	< 50
COc1cc2nn([C@H]3CC[C@H](CN4CCC(c5cccc6c5n(C)c(=O)n6C5CCC(=O)NC5=O)CC4)CC3)cc2cc1NC(=O)c1cccc(C(F)(F)F)n1 (stereo partly drawn) [I-110]	< 50
Cn1c(=O)n(C2CCC(=O)NC2=O)c2cccc(CN3CCC(OC4CCN(C[C@H]5CC[C@H](n6cc7cc(NC(=O)c8cccc(C(F)(F)F)n8)c(C(C)(C)O)cc7n6)CC5)CC4)CC3)c21 (stereo partly drawn) [I-66]	< 50
CN(CCO[C@H]1C[C@H](Cc2cccc3c2n(C)c(=O)n3C2CCC(=O)NC2=O)C1)C[C@H]1CC[C@H](n2cc3cc(NC(=O)c4cccc(C(F)(F)F)n4)c(C(F)F)cc3n2)CC1 (stereo partly drawn) [I-309]	50 to 100
COc1cc2nn([C@H]3CC[C@H](CN4CCC(c5cccc6c5n(C)c(=O)n6C5CCC(=O)N(C)C5=O)CC4)CC3)cc2cc1NC(=O)c1cccc(C(F)(F)F)n1 (stereo partly drawn) [I-257]	500 to 1000
COc1cc2nn([C@H]3CC[C@H](CN(C)[C@H]4CC[C@]5(CC4)C[C@@H](Cc4cccc6c4n(C)c(=O)n6C4CCC(=O)NC4=O)C5)CC3)cc2cc1NC(=O)c1cccc(C(F)(F)F)n1 (stereo partly drawn) [I-160]	50 to 100
COc1cc2nn([C@H]3CC[C@H](CN4CC(c5cccc6c5n(C)c(=O)n6C5CCC(=O)NC5=O)C4)CC3)cc2cc1NC(=O)c1cccc(C(C)(C)F)n1 (stereo partly drawn) [I-112]	50 to 100
COc1cc2nn([C@H]3CC[C@H](CN(C)C4CCC5(CC4)CC(Cc4cccc6c4n(C)c(=O)n6C4CCC(=O)NC4=O)C5)CC3)cc2cc1NC(=O)c1cccc(C(F)(F)F)n1 (stereo partly drawn) [I-117]	50 to 100

Second part, the compound after the results:

DC50 [nM]	Compound
< 50	CN(CCCC#Cc1ccc2c(c1)n(C)c(=O)n2C1CCC(=O)NC1=O)C[C@H]1CC[C@H](n2cc3cc(NC(=O)c4cccc(C(F)(F)F)n4)c(C(C)(C)O)cc3n2)CC1 (stereo partly drawn) [I-67, N-(2-((1r,4r)-4-(((5-(1-(2,6-dioxopiperidin-3-yl)-3-methyl-2-oxo-2,3-dihydro-1H-benzo[d]imidazol-5-yl)pent-4-yn-1-yl)(methyl)amino)methyl)cyclohexyl)-6-(2-hydroxypropan-2-yl)-2H-indazol-5-yl)-6-(trifluoromethyl)picolinamide]
500 to 1000	CN(C[C@H]1CC[C@H](n2cc3cc(NC(=O)c4ccccn4)c(C(C)(C)O)cc3n2)CC1)C1CCN(c2ccc3c(c2)n(C2CCC(=O)NC2=O)c(=O)n3C)CC1 (stereo partly drawn) [I-86]
< 50	Cn1c(=O)n(C2CCC(=O)NC2=O)c2cccc(CCC3CCN(C[C@H]4CC[C@H](n5cc6cc(NC(=O)c7cccc(C(F)(F)F)n7)c(C(C)(C)O)cc6n5)CC4)CC3)c21 (stereo partly drawn) [I-265]
50 to 100	CN(CC1CCN(c2cccc3c2C(=O)N(C2CCC(=O)NC2=O)C3=O)CC1)C[C@H]1CC[C@H](n2cc3cc(NC(=O)c4cccc(C(F)(F)F)n4)c(C(C)(C)O)cc3n2)CC1 (stereo partly drawn) [I-40]
< 50	Cn1c(=O)n(C2CCC(=O)NC2=O)c2cccc(CC3CCN(C[C@H]4CC[C@H](n5cc6cc(NC(=O)c7cccc(C(F)(F)F)n7)c(C(C)(C)O)cc6n5)CC4)CC3)c21 (stereo partly drawn) [I-229]
< 50	Cn1c(=O)n(C2CCC(=O)NC2=O)c2cccc([C@H]3CC[C@H](N(C)C[C@H]4CC[C@H](n5cc6cc(NC(=O)c7cccc(C(F)(F)F)n7)c(C(C)(C)O)cc6n5)CC4)CC3)c21 (single isomer, unassigned) [I-175, N-[2-[4-[[[4-[1-(2,6-dioxo-3-piperidyl)-3-methyl-2-oxo-benzimidazol-4-yl]cyclohexyl]-methyl-amino]methyl]cyclohexyl]-6-(1-hydroxy-1-methyl-ethyl)indazol-5-yl]-6-(trifluoromethyl)pyridine-2-carboxamide]
< 50	CN(C[C@H]1CC[C@H](n2cc3cc(NC(=O)c4cccc(C(F)(F)F)n4)c(C(F)F)cc3n2)CC1)C1CCN(c2cccc3c2n(C)c(=O)n3C2CCC(=O)NC2=O)CC1 (stereo partly drawn) [I-168]
< 50	Cn1c(=O)n(C2CCC(=O)NC2=O)c2cccc(N3CCN(C[C@H]4CC[C@H](n5cc6cc(NC(=O)c7cccc(C(F)(F)F)n7)c(C(C)(C)O)cc6n5)CC4)CC3)c21 (stereo partly drawn) [I-172]
< 50	CN(C[C@H]1CC[C@H](n2cc3cc(NC(=O)c4ccccn4)c(C(C)(C)O)cc3n2)CC1)C1CCN(c2cccc3c2n(C)c(=O)n3C2CCC(=O)NC2=O)CC1 (stereo partly drawn) [I-84]

Same assay, conditions: OCI-LY10 cells, 24 hrs incubation, read-out: IRAK4 degradation in OCI-LY10 at 24 hrs: DC50

Compound	DC50 [nM]
COc1cc2nn([C@H]3CC[C@H](CN4CCC5(CC4)CC(CNc4cccc6c4C(=O)N(C4CCC(=O)NC4=O)C6=O)C5)CC3)cc2cc1NC(=O)c1cccc(-c2cnn(C)c2)n1 (stereo partly drawn) [I-218]	50 to 100
COc1cc2nn([C@H]3CC[C@H](CN(C)C4CCC5(CC4)CC(CNc4cccc6c4C(=O)N(C4CCC(=O)NC4=O)C6=O)C5)CC3)cc2cc1NC(=O)c1cccc(-c2cnn(C)c2)n1 (stereo partly drawn) [I-219]	50 to 100
COc1cc2nn([C@H]3CC[C@H](CN4CCC5(CC4)CC(CCNc4cccc6c4C(=O)N(C4CCC(=O)NC4=O)C6=O)C5)CC3)cc2cc1NC(=O)c1cnn2cccnc12 (stereo partly drawn) [I-139]	< 50

The next lines start with the values.

DC50 [nM]	Compound
50 to 100	COc1cc2nn([C@H]3CC[C@H](CN(C)[C@H]4CC[C@]5(CC4)C[C@@H](CNc4cccc6c4C(=O)N(C4CCC(=O)NC4=O)C6=O)C5)CC3)cc2cc1NC(=O)c1cccc(C(F)(F)F)n1 (stereo partly drawn) [I-185]
50 to 100	CC(C)Oc1cc2nn([C@H]3CC[C@H](CN4CCC5(CC4)CC(Nc4cccc6c4C(=O)N(C4CCC(=O)NC4=O)C6=O)C5)CC3)cc2cc1NC(=O)c1cccc(C(F)(F)F)n1 (stereo partly drawn) [I-202]
< 50	CC(C)(O)c1cc2nn([C@H]3CC[C@H](CN4CCO[C@@H](CCCNc5cccc6c5C(=O)N(C5CCC(=O)NC5=O)C6=O)C4)CC3)cc2cc1NC(=O)c1cccc(C(F)(F)F)n1 (stereo partly drawn) [I-233]
50 to 100	CC(F)(F)c1cccc(C(=O)Nc2cc3cn([C@H]4CC[C@H](CN5CC6(CC(CCNc7cccc8c7C(=O)N(C7CCC(=O)NC7=O)C8=O)C6)C5)CC4)nc3cc2OC2CC2)n1 (stereo partly drawn) [I-200]
50 to 100	CC(C)(O)c1cc2nn([C@H]3CC[C@H](CN4CCC(O[C@H]5C[C@H](Nc6cccc7c6C(=O)N(C6CCC(=O)NC6=O)C7=O)C5)CC4)CC3)cc2cc1NC(=O)c1cccc(C(C)(C)F)n1 (stereo partly drawn) [I-234]
50 to 100	CN(C[C@H]1CC[C@H](n2cc3cc(NC(=O)c4cccc(C(F)(F)F)n4)c(C(C)(C)O)cc3n2)CC1)[C@H]1CC[C@@]2(CC1)C[C@H](Nc1cccc3c1C(=O)N(C1CCC(=O)NC1=O)C3=O)C2 (stereo partly drawn) [I-126]
100 to 500	CCOc1cc2nn([C@H]3CC[C@H](CN4CCC5(CC4)CC(CCNc4cccc6c4C(=O)N(C4CCC(=O)NC4=O)C6=O)C5)CC3)cc2cc1NC(=O)c1cccc(C(F)(F)F)n1 (stereo partly drawn) [I-212]
50 to 100	Cc1nc(C(=O)Nc2cc3cn([C@H]4CC[C@H](CN(C)[C@H]5CC[C@H](CNc6cccc7c6C(=O)N(C6CCC(=O)NC6=O)C7=O)CC5)CC4)nc3cc2C(C)(C)O)ccc1F (stereo partly drawn) [I-308]
50 to 100	COc1cc2nn([C@H]3CC[C@H](CN4CCO[C@H](CCCNc5cccc6c5C(=O)N(C5CCC(=O)NC5=O)C6=O)C4)CC3)cc2cc1NC(=O)c1cccc(C(F)(F)F)n1 (stereo partly drawn) [I-68]
